These results are taken from patent publication US12653788B2, “Pharmaceutical composition of a pyrazole compound dispersed in a polymer matrix” (Intervet Inc., priority 2019, dated 2026).

SMILES strings stand for the structures.

Data set [1] can be described thus: Oral bioavailability of the compound in dogs. Conditions: dog, in vivo. Here is the method:
(§1) The poor water solubility results in poor oral bioavailability in dogs, often below 50%. The log P of the compound of Formula (I) is calculated to be 1.25 (Chem Draw and Insight for Excel). To increase solubilization and promote bioavailability, Applicants have dosed the compound in the amorphous state as part of an amorphous solid dispersion (ASD). […] Therefore, the ASD was manufactured by co-precipitation or cPAD (co-precipitated amorphous dispersion). In this process, the compound and a polymer were dissolved into a solvent. The compound-polymer solution was then rapidly precipitated in an anti-solvent under high shear in a rotor-stator homogenizer. and the compound-polymer amorphous solid dispersion was formed.

Data set [2] is described as follows: Solubility of the compound (water, volatile solvents). Type of data set: physicochemical. Here is the method: as §1
Data set [3] is described as follows: In vitro anti-nucleating polymer screen in simulated gastric fluid (PION UV probe). The data set is classed as physicochemical. Conditions: only simulated gastric fluid (SGF) pH 1.8, no polymer; 2 hours, 272 nm. Here is the method:
FIG. 3—Several anti-nucleating polymers were assessed for ability to maintain the compound of Formula (I) in an in vitro screen.
In an attempt to improve the bioavailability of the compound of Formula (I) in animals administered in the fed state, anti-nucleating agents were added to the pharmaceutical composition to decrease the potential for crystallization of the compound. Several anti-nucleation polymers were assessed for ability to maintain the compound of Formula (I) in an in vitro screen. 0.5% solution of each anti-nucleating polymer was prepared in simulated gastric fluid, pH 1.8. 75 uL of 10 mg/mL API in DMSO was added into 5 mL of the 0.5% polymer solution and monitored by PION UV probe for 2 hours at 272 nm. […] When the other polymers were used, the concentration of the compound of Formula (I) was initially maintained but finally was reduced before the 2 hour test was completed.

A further data set has as its system cIL-31 induced pruritus. Conditions: with respect to placebo, similar magnitude to oclacitinib (Apoquel); cited from earlier work.

Broadly, the bioavailability is the share of a dose that reaches the circulation, judged against a reference dose that is usually intravenous. The low end stands for little systemic uptake, the high end for much systemic uptake. With `COc1cc(Nc2nn([C@H]3COCC[C@@H]3C#N)cc2C(N)=O)cc(F)n1` [compound of Formula (I), 1-[(3R,4S)-4-cyanotetrahydropyran-3-yl]-3-[(2-fluoro-6-methoxy-4-pyridyl)amino]pyrazole-4-carboxamide], the bioavailability in data set [1] is < 50%. Moreover, in data set [2] (isopropanol, acetone, dichloromethane), the “solubility in volatile solvents” value is recorded as “low solubility”. Further, the water solubility result in data set [2] (water) was “poorly water soluble”. For the same molecule, the “concentration of the compound of Formula (I) in control” value in data set [3] is recorded as “dropped almost immediately”. Besides, the suppression of pruritus entry in the data set with cIL-31 induced pruritus is reported as “significantly suppressed pruritus”.
